# Read-outs that look alike come from different tables or passages of the source.
# Tests used:
# CYP2B6 [1] = biological target: T1, CYP2B6 (Homo sapiens, UniProt P20813); type: biochemical
# Description: (§1) The bioassay was performed in a 96-well plate. 50 μL of a solution containing PAHs or BFRs is added to wells in triplicate. […] After incubating at room temperature 10 μL of substrate mixture (5 μM of substrate (EOMCC for CYP1A2, BOMCC for CYP2B6 or DBF for CYP3A4) and 30 μM Vivid® NADP^+ diluted in working buffer) was added. The plate was incubated 30 minutes at 25° C. and when time passed, fluorescence signal was measured with a fluorometric reader, 410/490 nm and 460/520 nm were the excitation and emission wavelengths, respectively. A blank sample, buffer solution, was measured at the same time and the reduction of the signal, inhibition of enzyme activity, was calculated and associated with the presence of contaminants.
# CYP3A4 [2] = biological target: T2, CYP3A4 (Homo sapiens, UniProt P08684); type: biochemical; settings: CYP3A4, DBF substrate; concentration providing 20% inhibition (IC20)
# T2 sequence (P08684 whole entry): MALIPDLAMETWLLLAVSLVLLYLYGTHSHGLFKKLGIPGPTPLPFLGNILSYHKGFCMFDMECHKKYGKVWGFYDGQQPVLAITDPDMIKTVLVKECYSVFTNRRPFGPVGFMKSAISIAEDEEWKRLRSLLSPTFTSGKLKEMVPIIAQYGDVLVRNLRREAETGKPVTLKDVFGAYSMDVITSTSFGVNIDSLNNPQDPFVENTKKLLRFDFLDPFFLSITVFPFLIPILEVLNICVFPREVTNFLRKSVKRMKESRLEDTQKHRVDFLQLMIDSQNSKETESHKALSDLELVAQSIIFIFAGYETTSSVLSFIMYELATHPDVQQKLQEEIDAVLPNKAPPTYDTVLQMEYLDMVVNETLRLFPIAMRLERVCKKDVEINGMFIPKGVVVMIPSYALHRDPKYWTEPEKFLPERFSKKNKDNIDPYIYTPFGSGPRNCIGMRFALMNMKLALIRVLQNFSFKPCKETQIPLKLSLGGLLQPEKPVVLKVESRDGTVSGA
# Description: as §1
# CYP2B10 = CYP2B10 (Mus musculus, UniProt P12791); settings: CYP2B10, 3 μM BOMCC; concentration that induces 20% inhibition (Table 8)
# Sequence of CYP2B10 (P12791 whole entry): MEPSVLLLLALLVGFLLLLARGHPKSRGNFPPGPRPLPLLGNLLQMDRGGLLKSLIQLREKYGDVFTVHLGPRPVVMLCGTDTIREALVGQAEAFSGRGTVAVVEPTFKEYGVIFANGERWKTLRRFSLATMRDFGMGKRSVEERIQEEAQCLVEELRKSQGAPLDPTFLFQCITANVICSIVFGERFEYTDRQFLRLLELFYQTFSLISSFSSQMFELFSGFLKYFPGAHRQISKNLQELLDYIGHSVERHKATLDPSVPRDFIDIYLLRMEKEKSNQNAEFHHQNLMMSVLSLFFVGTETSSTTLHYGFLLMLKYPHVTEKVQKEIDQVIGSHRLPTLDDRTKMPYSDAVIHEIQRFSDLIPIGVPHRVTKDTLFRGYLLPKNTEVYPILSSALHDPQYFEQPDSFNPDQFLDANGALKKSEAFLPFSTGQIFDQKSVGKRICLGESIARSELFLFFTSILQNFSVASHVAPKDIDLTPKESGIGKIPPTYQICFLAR
# CYP1A2 and CYP2C19 = type: biochemical
# Description: The bioassay was performed in a 96-well plate. 80 μL of sample is added to wells in triplicate. […] After the preparation, 10 μL of enzyme mixture were added to each plate. After incubating at room temperature 10 μL of substrate mixture (5 μM of substrate EOMCC and 30 μM Vivid® NADP^+ diluted in working buffer) was added. The plate was incubated 30 minutes at 30° C. and when time passed, fluorescence signal was measured with a fluorometric reader, 410 nm and 460 nm were the excitation and emission wavelengths, respectively. A blank sample, buffer solution, was measured at the same time and the reduction of the signal, inhibition of enzyme activity, was calculated and associated with the presence of contaminants.
# CYP3A4 [3] = biological target: T2, CYP3A4; type: biochemical; settings: for Inhibition percentage I (%): lateral flow reader; for Limit of detection: CYP3A4 lateral flow, concentration providing 20% of inhibition, estimated
# Description: The metabolism of two different fluorescent substrates was used to determine the percent of inhibition of CYP3A4 as response to the contaminant concentrations. The enzymatic reactions were carried out in 96-well plates adding 80 μL of potassium phosphate buffer (100 mM, pH 8.0) or 100 ng/mL of standard solutions in duplicates. Both brominated compounds were prepared in potassium phosphate buffer (100 mM, pH 8.0) and tested as inhibitors of CYP3A4 activity. […] Subsequently, 10 μL of enzyme mixture were added to each well, homogenised and allowed to pre-incubate during 10 minutes at room temperature. Two different substrate mixtures were used in combination with brominated molecules. To evaluate the inhibition promoted by BDE-100, 10 μL of a substrate mixture containing 2 μM of DBF and 30 μM Vivid® NADP+ in potassium phosphate buffer (100 mM, pH8.0), were added to the appropriated wells. The inhibitory effect of HBCD concentration was tested for a substrate mixture, containing 2 μM of DBOMF and 30 μM Vivid® NADP+ prepared in potassium phosphate buffer (100 mM, pH8.0), from which 10 μL were added to the appropriated wells. After the addition of the respective substrate probes, the plate was newly incubated at 25° C. for 60 minutes. The resulting reaction broths were diluted 10 and 20 times in buffer, for respectively DBF and BDE-100, and for DBOMF and HBCD reactions. Finally, 1.5 μL of diluted broths were pipetted as a line onto nitrocellulose membranes and the fluorometric measurements carried out at a lateral flow reader (ESEQuant LR3, QIAGEN) with a fluorometric channel of 470 nm and 520 nm as excitation and emission wavelengths, respectively. A blank sample, buffer solution, was measured at the same time and the reduction of the signal, inhibition of enzyme activity, was calculated and associated with the presence of each BDE, as shown in Table 5.
# Considering the signal intensity developed for different levels of the contaminant molecules, the concentration providing 20% of inhibition was selected as limit of detection, estimated to be 36 ng/mL and 14 ng/mL for BDE-100 and HBCD, respectively.
# CYP2B6 [4] = biological target: T1, CYP2B6; settings: pH 7.4
# CYP3A4 [5] = biological target: T2, CYP3A4; settings: pH 8
# CYP3A4 [6] = biological target: T2, CYP3A4; type: biochemical; settings: CYP3A4 electrochemical biosensor, 50 μM progesterone, estimated
# Description: The working electrodes (WE) of screen-printed carbon electrodes (SPCE) (C110, from Methrom-Dropsens), were modified with 3 μL suspension of 1 mg/mL of single-walled carbon nanotubes. After chloroform evaporation, 5 μL of a 0.08 nmol/mL solution of CYP3A4 (recombinant, expressed in E. Coli from Sigma-Aldrich) was deposited onto the modified WE surface and incubated overnight at 4° C. 100 mM of potassium phosphate buffer saline (PBS) at pH 8.0, containing 50 mM of potassium chloride, was used to prepare the standards, as well as a supporting electrolyte for the electrochemical measurements. Aliquots (60 μL) of 50 μM progesterone solutions containing 0, 50, 100, 200 and 300 ng/mL of HBCD, were placed onto the working area of the SPCE by drop-casting, incubated for 2 minutes at room temperature and the electrochemical measurements performed. For each sample, one cyclic voltammetric scan was carried out, sweeping the potential from −0.75 V to 0.30 V at 0.02 V/s. The peak height of the cathodic peaks generated near to −0.55 V was registered and HBCD presence, calculated using as reference the peak of the blank assay (buffer solution). The electrochemical signal registered at CYP3A4-based biosensor, respond to the concentration of HBCD, allowing to establish the I (%) values for different concentrations of this compound (FIG. 1). Limit of detection was estimated to be 42.8 ng/mL for HBCD.
# [7] = CYP2B6, BOMCC substrate, concentration providing 20% inhibition (IC20)
# T1 sequence (P20813 whole entry): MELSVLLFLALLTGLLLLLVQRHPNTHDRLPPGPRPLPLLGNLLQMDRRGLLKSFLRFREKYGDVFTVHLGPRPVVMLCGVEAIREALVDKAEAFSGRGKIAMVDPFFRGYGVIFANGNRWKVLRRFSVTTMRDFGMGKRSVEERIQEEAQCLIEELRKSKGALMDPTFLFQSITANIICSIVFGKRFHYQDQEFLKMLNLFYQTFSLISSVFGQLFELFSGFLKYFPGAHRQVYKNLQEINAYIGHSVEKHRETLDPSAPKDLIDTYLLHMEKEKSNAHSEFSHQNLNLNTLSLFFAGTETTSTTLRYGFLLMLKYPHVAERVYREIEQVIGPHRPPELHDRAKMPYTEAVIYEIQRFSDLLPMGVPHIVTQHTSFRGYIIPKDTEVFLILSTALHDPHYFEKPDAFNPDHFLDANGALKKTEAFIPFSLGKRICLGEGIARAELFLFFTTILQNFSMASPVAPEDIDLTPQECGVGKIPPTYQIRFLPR
compound,measurement,setting,value
"c1ccc2c(c1)-c1cccc3c1c-2cc1ccccc13 [benzo(b)fluoranthene (BbF), benzo(b)fluoranthene]",Limit of detection,CYP2B6 [1]; [7],20 µg/L
"c1ccc2cc3c(ccc4ccccc43)cc2c1 [benz(a)anthracene (BaA), benz(a)anthracene]",Limit of detection,CYP2B6 [1]; human,5 µg/L
"Brc1ccc(Oc2cc(Br)c(Br)cc2Br)c(Br)c1 [BDE-99, 2,2′,4,4′,5-Pentabromodiphenyl ether]",Limits of detection,CYP3A4 [2],100 ng/mL
[CH3][Hg][Cl] [Methylmercury],Limits of detection CYP2B10,CYP2B10,44.3 ng/mL
"Brc1cc(Br)c(Oc2cc(Br)c(Br)cc2Br)cc1Br [BDE-153, 2,2′,4,4′,5,5′-Hexabromodiphenyl ether]",Limits of detection,CYP3A4 [2],5 ng/mL
O=C([O-])c1ccccc1.[Na+] [Sodium Benzoate],Limits of detection CYP2B10,CYP2B10,3.2e+06 ng/mL
C=C(C[C@@]12C[C@@H](C)C[C@H](O1)[C@H]1O[C@]3(C[C@H]1O2)NC[C@H](C)C[C@@H]3C)[C@H]1O[C@@](O)([C@@H](O)[C@@H]2C[C@H]3O[C@@]4(CC[C@]5(CC=C[C@@H](/C=C/CCC(=O)O)O5)O4)[C@H](C)C[C@H]3O2)[C@H](C)C[C@@H]1C [Azaspiracid-1],Limit of detection,"CYP1A2 and CYP2C19; CYP1A2 and CYP2C19, 5 μM EOMCC, concentration that induces 20% inhibition",3 µg/L
"Brc1ccc(Oc2c(Br)cc(Br)cc2Br)c(Br)c1 [BDE-100, 2,2′,4,4′,6-Pentabromodiphenyl ether]",Inhibition percentage I (%),"CYP3A4 [3]; CYP3A4, 2 μM DBF, 100 ng/ml contaminant",55.4%
same,Limit of detection,CYP3A4 [3]; DBF substrate,36 ng/mL
same,Limits of detection,CYP3A4 [2],5 ng/mL
"13,19-didesmethyl C spirolide",Limit of detection,CYP1A2 and CYP2C19,10 µg/L
"Brc1c(Br)c(Br)c(Oc2c(Br)c(Br)c(Br)c(Br)c2Br)c(Br)c1Br [BDE-209, Decabromodiphenyl ether]",Limits of detection,CYP3A4 [2],10 ng/mL
O=NO [Sodium Nitrite],Limits of detection CYP2B6,CYP2B6 [4],2.3 mg/mL
C=CCC(=C)/C=C/[C@@](C)(O)[C@H]1O[C@@H]2C[C@@H]3O[C@@H]4C[C@@H]5O[C@@H]6C[C@@H]7O[C@@H]8C[C@@H]9O[C@@H]%10C[C@@H]%11O[C@](C)(CCOS(=O)(=O)O)[C@@H](OS(=O)(=O)O)C[C@H]%11O[C@H]%10C[C@H]9O[C@H]8CC[C@@]7(C)O[C@@]6(C)CC[C@H](C)[C@H]5O[C@H]4C[C@@]3(C)O[C@H]2CC1=C [Yessotoxin],Limit of detection,CYP1A2 and CYP2C19; human,45 µg/L
"Brc1ccc(Oc2ccc(Br)cc2Br)cc1 [BDE-28, 2,4,4′-Tribromodiphenyl ether]",Limits of detection,CYP3A4 [2],100 ng/mL
"c1ccc2c(c1)ccc1c3ccccc3ccc21 [chrysene (Chrys), chrysene]",Limit of detection,CYP2B6 [1]; [7],10 µg/L
N[C@@H](CCC(=O)O)C(=O)[O-].[Na+] [Monosodium glutamate],Limits of detection CYP3A4,CYP3A4 [5],3.6 mg/mL
Hexabromocyclododecane [HBCD],Inhibition percentage I (%),"CYP3A4 [3]; CYP3A4, 2 μM DBOMF, 50 ng/mL contaminant",69.8%
same,Inhibition percentage I (%),"CYP3A4 [3]; CYP3A4, 2 μM DBOMF, 100 ng/mL contaminant",84.3%
same,Limit of detection,CYP3A4 [3]; DBOMF substrate,14 ng/mL
same,Limit of detection,CYP3A4 [6],42.8 ng/mL
"c1ccc2c(c1)cc1ccc3cccc4ccc2c1c34 [benzo(a)pyrene (BaP), benzo(a)pyrene]",Limit of detection,CYP2B6 [1]; [7],15 µg/L
"Brc1ccc(Oc2ccc(Br)cc2Br)c(Br)c1 [BDE-47, 2,2′,4,4′-Tetrabromodiphenyl ether]",Limits of detection,CYP3A4 [2],5 ng/mL
"Brc1cc(Br)c(Oc2cc(Br)c(Br)cc2Br)c(Br)c1 [BDE-154, 2,2′,4,4′,5,6′-Hexabromodiphenyl ether]",Limits of detection,CYP3A4 [2],5 ng/mL
